Laboratory results taken from publication PMC11459959, “Discovery of new acetamide derivatives of 5-indole-1,3,4-oxadiazol-2-thiol as inhibitors of HIV-1 Tat-mediated viral transcription” (Antimicrobial Agents and Chemotherapy, 2024).
Like-named read-outs stand apart in the source and are kept apart here.

What was measured:
[1] = test system: Tat-mediated LTR transcription; assay: Dual-reporter assay, F-Luc (Tat-mediated LTR transcription) in bl-DTR cells; format: cell-based, HIV-1; conditions: for inhibitory effect on Tat (in words): F-Luc; for IC50: Human immunodeficiency virus 1, 24 h, read-out: IC50 of F-Luc (Tat)
Method: (§1) Fig 1 (A) (Top panel) Schematic representation of the primary compound screening using a dual-reporter system. […] (B). […] (Top graphs) bl-DTR cells (1 × 10^4) were treated with twofold serial dilutions of each compound before doxycycline (Dox) addition (final concentration, 50 ng/mL). After 24 h of treatment, the activities of firefly luciferase (F-Luc, red line) and Renilla luciferase (R-Luc, blue line) were determined using the Dual-Glo Luciferase assay system. (Bottom graphs) TZM-bl cells were treated with each indicated compound and subsequently infected with the HIV-1NL4-3 strain at a multiplicity of infection (MOI) of 1. At 48 h after infection, the viral infectivity (purple line) and cell viability (green line) were determined using the Bright-Glo luciferase assay kit and the PrestoBlue Cell Viability Reagent, respectively. […] (C). […] The targeted moieties for the SAR study are marked with dotted-circle lines.
(§2) The Tzm-bl-derived dual Tat reporter; TZM-bl/Tat/Rluc (bl-DTR) cells were established from TZM-bl cells using two Dox-inducible lentiviral expression cassettes cloned with Flag-tagged Tat86 and the R-Luc gene, as described in our previous study ([11]). TZM-bl, A3.01, J1.1, and J-Lat 6.3 cells as well as the HIV-1 molecular clone pNL4-3, pNL(AD8), ARV-resistant HIV-1 strains, and HIV-1NL43-IRES-eGFP (pBR43IeG-nef^+, gifted by Dr. Frank Kirchhoff) ([52]) were provided by the National Institute of Health HIV Reagent Program (NIH, Bethesda, MD, USA). HeLa (CCL-2) and 293T (CRL-3216) cell lines were purchased from the American Type Culture Collection (ATCC, Manassas, VA, USA). The bl-DTR, TZM-bl, HeLa, and 293T cells were cultured in Dulbecco’s modified Eagle’s medium supplemented with 1% penicillin–streptomycin and 10% (vol/vol) heat-inactivated fetal bovine serum (all from Gibco-BRL, Gaithersburg, MD, USA), and 1 µg/mL of puromycin and 200 µg/mL of zeocin were additionally supplemented for the bl-DTR cells. PBMCs were purchased from AllCells (Alameda, CA, USA) and cultured as previously described ([12]). The information on ARV-resistant HIV-1 strains was described in previous reports as follows: NNRTI-resistant 12241 and 12243 ([53]); NRTI-resistant 7396, 7406, and 7407 ([54]); INSTI-resistant 11847 and 11849 ([55], [56]); and PI-resistant 11800 and 11803 ([57]). Each molecular HIV-1 clone was transfected to 293T cells, as previously described ([58]), to obtain infectious HIV-1 particles. Virus-containing cell culture supernatants were collected 3 days after transfection, and filtered through a 0.45-µm membrane filter (Millipore Sigma, Burlington, MA, USA) to remove cell debris. The viral titration was performed as described previously ([59]) with some minor modifications. In brief, 1 × 10^4 TZM-bl cells seeded in 96-well plates were infected with 200 µL of virus-containing medium diluted serially twofold. The incubation was for 2 days and the experiment was performed in triplicate; the infection time minimized the virus spread ([59]). The titration of the infectious viral particles was performed with a ß-Gal staining assay using the ßeta-Galactosidase Staining Kit (Mirus Bio, Madison, WI, USA) following the manufacturer’s protocols. In brief, the infected cells were washed with phosphate-buffered saline (PBS) and fixed using a Cell Fixative Working solution. The cells were washed with PBS and stained using the Cell Staining Working Solution containing X-gal. The infected blue-colored cells were counted under a microscope (100× magnification). The infectious virus titer was determined as a mean value of blue-colored cells count × dilution factor and used for determining the multiplicity of infection (MOI) in each infection experiment.

HIV-1NL4-3 = assay: HIV-1 infectivity in TZM-bl cells (F-Luc); format: cell-based; conditions: for inhibitory effect on HIV-1 infection (in words) / SI (CC50/EC50): TZM-bl cells; for inhibitory effect on HIV-1 infection (in words): HIV-1NL4-3; for EC50: Human immunodeficiency virus 1, TZM-bl, 48 h, TZM-bl cells infected with HIV-1NL4-3 at MOI 1, 48 h, F-Luc, mean ± SD
Method: (§3) The TZM-bl cells (also referred to as JC53BL-13) expressing human CD4, CXCR4, and CCR5 carrying the F-Luc and lacZ genes downstream of the HIV-1 LTR promoter ([60]) were used to determine the inhibitory effect of the compounds on HIV-1 infection, as previously described ([11], [12], [61]). In brief, 1 × 10^4 cells were cultured in 96-well plates for 24 h and subsequently treated with compounds at the indicated concentrations. Without replacement of the culture medium, the cells were subsequently infected with the HIV-1NL4-3 wild-type or ARV-resistant HIV-1 strains at an MOI of 1 to determine the exact inhibitory effect of compounds on a single-round infection. After 48 h, the inhibitory effect of the compounds was determined using a Bright Glo luciferase assay kit (Promega) or β-Galactosidase Enzyme Assay kit (Promega). The infectivity data were presented as a percentage relative to the dimethyl sulfoxide (DMSO) control (vehicle). Cell viability was determined using the resazurin-based PrestoBlue Cell Viability Reagent (Thermo Fisher Scientific, Waltham, MA, USA) following the manufacturer’s instructions.

[2] = test system: general cellular transcription/translation (R-Luc); assay: Dual-reporter assay, R-Luc in bl-DTR cells; format: cell-based; conditions: doxycycline, 24 h
Method: as §1, §2

[3] = Cell viability of TZM-bl cells (PrestoBlue); format: cell-based; conditions: human
Method: as §3

Row | Compound | LTR activity increase induced by adding prostratin ([1]; bl-DTR cells, Dox, sustained in the presence of compounds 9 or 13) | inhibitory effect on HIV-1 infection (in words) (HIV-1NL4-3) | inhibitory effect on Tat (in words) ([1]; bl-DTR cells) | EC50 (HIV-1NL4-3; read-out: EC50) [µM] | SI (CC50/EC50) (HIV-1NL4-3) | Relative R-Luc activity at IC50 of F-Luc [2] | CC50 at 48 h [3] [µM] | IC50 [1] [µM] | EC50 (HIV-1NL4-3) [µM]
1 | CC(=O)O[C@@]12C[C@@H](C)[C@@]3(O)[C@@H](C=C(CO)C[C@]4(O)C(=O)C(C)=C[C@@H]34)[C@@H]1C2(C)C [prostratin, reference compound] | ~ 1.5 fold |  |  |  |  |  |  |  | 
2 | Cc1[nH]c2ccc(-c3nnc(SC(C)(C)C(=O)N4CCCCC4)o3)cc2c1C [Compound 12, 2-((5-(2,3-Dimethyl-1H-indol-5-yl)-1,3,4-oxadiazol-2-yl)thio)-2-methyl-1-(piperidin-1-yl)propan-1-one] |  | increased | increased |  |  |  |  |  | 
3 | Cc1[nH]c2ccc(-c3nnc(SCCN4CCCC4)o3)cc2c1C [Compound 25, 2-(2,3-Dimethyl-1H-indol-5-yl)-5-((2-(pyrrolidin-1-yl)ethyl)thio)-1,3,4-oxadiazole] |  | no effect was observed | no effect was observed |  |  |  |  |  | 
4 | 1-(Pyrrolidin-1-yl)-2-((5-(1,2,3-trimethyl-1H-indol-5-yl)-1,3,4-oxadiazol-2-yl)thio)ethan-1-one [Compound 19] |  | did not demonstrate any biological effect | did not demonstrate any biological effect |  |  |  |  |  | 
5 | 2-((5-(2,3-Dimethyl-1H-indol-5-yl)-1,3,4-oxadiazol-2-yl)thio)-1-(pyrrolidin-1-yl)propan-1-one [Compound 15] |  | increased | increased |  |  |  |  |  | 
6 | Cc1[nH]c2ccc(-c3nnc(SCC(=O)N4CCCCC4)n3C)cc2c1C [Compound 28, 2-((5-(2,3-Dimethyl-1H-indol-5-yl)-4-methyl-4H-1,2,4-triazol-3-yl)thio)-1-(piperidin-1-yl)ethan-1-one] |  | critical decrease of potency | critical decrease of potency | 21.2 ± 1.47 | 1.74 | 90 | 36.8 ± 12.6 | 13.7 ± 0.53 | 
7 | Cc1[nH]c2ccc(-c3nnc(SCCC(=O)O)o3)cc2c1C [Compound B, 3-((5-(2,3-Dimethyl-1H-indol-5-yl)-1,3,4-oxadiazol-2-yl)thio)propanoic acid] |  |  |  | 2.63 ± 0.34 | 16.97 | >100 | 44.6 ± 5.68 | 2.29 ± 0.08 | 
8 | Cc1[nH]c2ccc(-c3nnc(SCCN4CCCCC4)o3)cc2c1C [Compound 24, 2-(2,3-Dimethyl-1H-indol-5-yl)-5-((2-(piperidin-1-yl)ethyl)thio)-1,3,4-oxadiazole] |  |  | modest inhibitory effect | 3.02 ± 0.09 | 13.34 | >100 | 40.3 ± 1.74 | 1.97 ± 0.03 | 
9 | Cc1[nH]c2ccc(-c3nnc(SCC(=O)N4CCCC4)n3CCc3ccccc3)cc2c1C [Compound 31, 2-((5-(2,3-Dimethyl-1H-indol-5-yl)-4-phenethyl-4H-1,2,4-triazol-3-yl)thio)-1-(pyrrolidin-1-yl)ethan-1-one] |  |  |  | 5.89 ± 0.05 | 9.39 | >100 | 55.3 ± 10.2 | 3.42 ± 0.12 | 
10 | Cc1[nH]c2ccc(-c3nnc(SC(C)C(=O)N4CCCCC4)n3CCc3ccccc3)cc2c1C (centres unmarked) [Compound 30, 2-((5-(2,3-Dimethyl-1H-indol-5-yl)-4-phenethyl-4H-1,2,4-triazol-3-yl)thio)-1-(piperidin-1-yl)propan-1-one] |  |  |  | 2.01 ± 0.11 | 11.26 | 100 | 22.6 ± 0.47 | 1.74 ± 0.06 | 
11 | Cc1[nH]c2ccc(-c3nnc(S)o3)cc2c1C [Compound 3b, 5-(2,3-Dimethyl-1H-indol-5-yl)-1,3,4-oxadiazole-2-thiol] |  | did not exhibit a substantial biological effect | did not exhibit a substantial biological effect |  |  |  |  |  | 
12 | O=C(O)CCSc1nnc(-c2cccc3ccccc23)o1 [Compound A, 3-((5-(Naphthalen-1-yl)-1,3,4-oxadiazol-2-yl)thio)propanoic acid] |  |  |  |  |  |  |  | 4 | 4.19
